Test results published in patent US20140018347A1, “BENZOXAZEPINES AS INHIBITORS OF mTOR AND METHODS OF THEIR USE AND MANUFACTURE” (Exelixis, Inc., priority 2010, published 2014).

Assays:
mTORC1 = mTORC1 (Homo sapiens, UniProt P42345); test: mTOR/GbL/Raptor (mTORC1) ELISA Assay; format: biochemical; settings: phosphorylation of 4E-BP1; 0.2 nM mTORC1, 10 μM ATP
Protocol: The measurement of mTORC1 enzyme activity was performed in an ELISA assay format following the phosphorylation of 4E-BP1 protein. All experiments were performed in the 384-well format. Generally, 0.5 μL DMSO containing varying concentrations of the test compound was mixed with 15 μL enzyme solution. Kinase reactions were initiated with the addition of 15 μL of substrates-containing solution. The assay conditions were as follows; 0.2 nM mTORC1, 10 μM ATP and 50 nM NHis-tagged 4E-BP1 in 20 mM Hepes, pH 7.2, 1 mM DTT, 50 mM NaCl, 10 mM MnCl2, 0.02 mg/mL BSA, 0.01% CHAPS, 50 mM β-glycerophosphate. Following an incubation of 120 minutes at ambient temperature, 20 μL of the reaction volume was transferred to a Ni-Chelate-coated 384-well plate. The binding step of the 4E-BP1 protein proceeded for 60 minutes, followed by washing 4 times each with 50 μL of Tris-buffered saline solution (TBS). Anti-phospho-4E-BP1 rabbit-IgG (20 μL, 1:5000) in 5% BSA-TBST (0.2% Tween-20 in TBS) was added and further incubated for 60 minutes. Incubation with a secondary HRP-tagged anti-IgG was similarly performed after washing off the primary antibody (4 washes of 50 μL). Following the final wash step with TBST, 20 μL of SuperSignal ELISA Femto (Pierce Biotechnology) was added and the luminescence measured using an EnVision plate reader.

PI3Kalpha = PI3Kalpha (Homo sapiens, UniProt P42336); test: PI3K Biochemical Assays (PI3K-alpha assay); settings: ATP consumption, luciferase-luciferin; 1 μM ATP, 10 μM PIP2
Chain of PI3Kalpha (P42336 whole entry): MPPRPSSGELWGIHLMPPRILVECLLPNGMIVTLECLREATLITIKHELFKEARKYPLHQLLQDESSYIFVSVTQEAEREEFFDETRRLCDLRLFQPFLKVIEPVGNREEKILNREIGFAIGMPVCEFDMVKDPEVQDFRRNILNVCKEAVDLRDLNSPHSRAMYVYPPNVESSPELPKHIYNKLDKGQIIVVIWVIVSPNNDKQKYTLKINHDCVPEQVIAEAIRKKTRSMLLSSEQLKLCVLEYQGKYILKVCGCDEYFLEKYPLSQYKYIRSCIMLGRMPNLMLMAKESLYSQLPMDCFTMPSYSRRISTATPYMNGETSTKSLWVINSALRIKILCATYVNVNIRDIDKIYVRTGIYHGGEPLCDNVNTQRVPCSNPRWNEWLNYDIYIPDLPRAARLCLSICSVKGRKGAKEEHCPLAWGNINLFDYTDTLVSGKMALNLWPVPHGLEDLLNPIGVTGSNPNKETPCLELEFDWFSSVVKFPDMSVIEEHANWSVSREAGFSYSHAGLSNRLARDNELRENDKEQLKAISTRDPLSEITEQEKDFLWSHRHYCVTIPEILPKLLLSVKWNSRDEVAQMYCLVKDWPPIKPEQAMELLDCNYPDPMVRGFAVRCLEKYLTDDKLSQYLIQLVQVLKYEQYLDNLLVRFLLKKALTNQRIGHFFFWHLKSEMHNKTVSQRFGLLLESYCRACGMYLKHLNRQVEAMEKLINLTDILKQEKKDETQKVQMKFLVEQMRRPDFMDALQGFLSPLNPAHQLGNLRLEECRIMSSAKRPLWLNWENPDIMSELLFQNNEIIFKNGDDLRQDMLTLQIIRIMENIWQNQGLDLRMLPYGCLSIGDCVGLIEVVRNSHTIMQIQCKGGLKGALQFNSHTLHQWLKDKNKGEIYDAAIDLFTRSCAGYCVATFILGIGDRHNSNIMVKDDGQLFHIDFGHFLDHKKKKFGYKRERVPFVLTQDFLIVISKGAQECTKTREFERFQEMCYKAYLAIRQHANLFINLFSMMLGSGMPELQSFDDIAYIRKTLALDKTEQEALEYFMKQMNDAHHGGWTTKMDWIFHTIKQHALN
Chain of PI3Kalpha (P27986 whole entry partner): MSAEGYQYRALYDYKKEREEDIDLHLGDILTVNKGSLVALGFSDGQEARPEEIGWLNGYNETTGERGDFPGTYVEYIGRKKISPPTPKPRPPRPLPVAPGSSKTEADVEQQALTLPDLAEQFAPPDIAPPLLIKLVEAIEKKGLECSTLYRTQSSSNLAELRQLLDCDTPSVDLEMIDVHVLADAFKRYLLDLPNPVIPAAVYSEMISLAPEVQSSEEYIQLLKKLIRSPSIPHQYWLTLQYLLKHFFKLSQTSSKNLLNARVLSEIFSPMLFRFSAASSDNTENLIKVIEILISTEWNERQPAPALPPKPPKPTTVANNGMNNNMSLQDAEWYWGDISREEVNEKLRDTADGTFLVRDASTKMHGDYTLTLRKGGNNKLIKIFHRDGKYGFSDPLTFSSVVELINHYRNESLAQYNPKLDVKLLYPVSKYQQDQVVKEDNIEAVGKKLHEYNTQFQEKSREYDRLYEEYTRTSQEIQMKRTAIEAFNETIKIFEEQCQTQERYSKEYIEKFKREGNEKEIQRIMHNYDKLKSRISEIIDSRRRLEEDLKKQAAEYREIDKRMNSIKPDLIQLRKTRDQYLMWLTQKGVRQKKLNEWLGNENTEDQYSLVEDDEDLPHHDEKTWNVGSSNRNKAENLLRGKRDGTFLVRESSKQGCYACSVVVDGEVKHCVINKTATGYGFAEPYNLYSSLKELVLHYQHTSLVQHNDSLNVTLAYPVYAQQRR
Protocol: PI3Kn activity was measured as the percent of ATP consumed following the kinase reaction using luciferase-luciferin-coupled chemiluminescence. Reactions were conducted in 384-well white, medium binding microtiter plates (Greiner). Kinase reactions were initiated by combining test compounds, ATP, substrate (PIP2), and kinase in a 20 μL volume in a buffer solution. The standard PI3Kalpha assay buffer was composed 50 mM Tris, pH 7.5, 1 mM EGTA, 10 mM MgCl2, 1 mM DTT and 0.03% CHAPS. The standard assay concentrations for enzyme, ATP, and substrate were 3 nM, 1 μM, and 10 μM, respectively. The reaction mixture was incubated at ambient temperature for approximately 2 h. Following the kinase reaction, a 10 μL aliquot of luciferase-luciferin mix (Promega Kinase-Glo) was added and the chemiluminescence signal measured using a Victor2 or EnVision (Perkin Elmer). Total ATP consumption was limited to 40-60% and IC50 values of control compounds correlate well with literature references. Substituting PI3Kα with PI3Krβ, PI3Kγ, or PI3Kδ, the inhibitory activity of the compounds for the other isoforms of PI3K were measured. For the PI3Kβ and PI3Kδ assays, enzyme concentrations were 10 nM and 4 nM, respectively. For the PI3Kγ assay, enzyme concentration was 40 nM, the incubation time was 1 h, and the concentration of MgCl2 in the assay buffer was 5 mM.

Row | IC50 (mTORC1) [µM] | IC50 (PI3Kalpha) [µM] | Structure (SMILES)
1 | ≤ 0.1 | ≤ 0.1 | N#Cc1cnc(N)cc1N1CCOc2ccc(-c3cnc4sc(N)nc4c3)cc2C1 [Compound 58, 6-amino-4-[7-(2-amino[1,3]thiazolo[5,4-b]pyridin-6-yl)-2,3-dihydro-1,4-benzoxazepin-4(5H)-yl]pyridine-3-carbonitrile]
2 | 0.1 to 0.5 | ≤ 0.1 | Cc1nc(CN(C)C)nc(N2CCOc3ccc(-c4cnc5sc(N)nc5c4)cc3C2)c1Cl [Compound 65, 6-(4-{5-chloro-2-[(dimethylamino)methyl]-6 methylpyrimidin-4-yl}-2,3,4,5-tetrahydro-1,4-benzoxazepin-7-yl)[1,3]thiazolo[5,4-b]pyridin-2-amine]
3 | ≤ 0.1 | ≤ 0.1 | Cc1nc(CN2CCCC2)nc(N2CCOc3ccc(-c4cnc5sc(N)nc5c4)cc3C2)c1C(C)C [Compound 28, 6-{4-[6-methyl-5-(1-methylethyl)-2-(pyrrolidin-1-ylmethyl)pyrimidin-4-yl]-2,3,4,5-tetrahydro-1,4-benzoxazepin-7-yl}[1,3]thiazolo[5,4-b]pyridin-2-amine]
4 | ≤ 0.1 | ≤ 0.1 | CC(C)c1c(F)nc(N)nc1N1CCOc2ccc(-c3cnc4sc(N)nc4c3)cc2C1 [Compound 10, 6-{4-[2-amino-6-fluoro-5-(1-methylethyl)pyrimidin-4-yl]-2,3,4,5-tetrahydro-1,4-benzoxazepin-7-yl}[1,3]thiazolo[5,4-b]pyridin-2-amine]
5 | 0.5 to 2.5 | ≤ 0.1 | Cc1nc(CN(C)C)nc(N2CCOc3ccc(-c4cnc5sc(N)nc5c4)cc3C2)c1Br [Compound 64, 6-(4-{5-bromo-2-[(dimethylamino)methyl]-6-methylpyrimidin-4-yl}-2,3,4,5-tetrahydro-1,4-benzoxazepin-7-yl)[1,3]thiazolo[5,4-b]pyridin-2-amine]
6 | 0.5 to 2.5 | 0.5 to 2.5 | Cc1nc(CN(C)C)nc(N2CCOc3ccc(-c4cnc5sc(N)nc5c4)cc3C2)c1CC(O)CO (stereo not shown) [Compound 45, 3-{4-[7-(2-amino[1,3]thiazolo[5,4-b]pyridin-6-yl)-2,3-dihydro-1,4-benzoxazepin-4(5H)-yl]-2-[(dimethylamino)methyl]-6-methylpyrimidin-5-yl}propane-1,2-diol]
7 | ≤ 0.1 | ≤ 0.1 | Cc1nc(N)nc(N2CCOc3ccc(-c4cnc5sc(N)nc5c4)cc3C2)c1-c1cccc(F)c1 [Compound 40, 6-{4-[2-amino-5-(3-fluorophenyl)-6-methylpyrimidin-4-yl]-2,3,4,5-tetrahydro-1,4-benzoxazepin-7-yl}[1,3]thiazolo[5,4-b]pyridin-2-amine]
8 | ≤ 0.1 | ≤ 0.1 | Cc1nc(CN(C)C)nc(N2CCOc3ccc(-c4cnc5sc(N)nc5c4)cc3C2)c1Cc1ccc(F)cc1 [Compound 62, 6-(4-{2-[(dimethylamino)methyl]-5-[(4-fluorophenyl)methyl]-6-methylpyrimidin-4-yl}-2,3,4,5-tetrahydro-1,4-benzoxazepin-7-yl)[1,3]thiazolo[5,4-b]pyridin-2-amine]
9 | ≤ 0.1 | 0.1 to 0.5 | Cc1nc(C#N)nc(N2CCOc3ccc(-c4cnc5sc(N)nc5c4)cc3C2)c1C(C)C [Compound 25, 4-[7-(2-amino[1,3]thiazolo[5,4-b]pyridin-6-yl)-2,3-dihydro-1,4-benzoxazepin-4(5H)-yl)-6-methyl-5-(1-methylethyl)pyrimidine-2-carbonitrile]
10 | ≤ 0.1 | ≤ 0.1 | CCc1c(Cl)nc(N)nc1N1CCOc2ccc(-c3cnc4sc(N)nc4c3)cc2C1 [Compound 7, 6-[4-(2-amino-6-chloro-5-ethylpyrimidin-4-yl)-2,3,4,5-tetrahydro-1,4-benzoxazepin-7-yl][1,3]thiazolo[5,4-b]pyridin-2-amine]
11 | ≤ 0.1 | ≤ 0.1 | Cc1nc(C(N)=O)nc(N2CCOc3ccc(-c4cnc5sc(N)nc5c4)cc3C2)c1C(C)C [Compound 20, 4-[7-(2-amino[1,3]thiazolo[5,4-b]pyridin-6-yl)-2,3-dihydro-1,4-benzoxazepin-4(5H)-yl]-6-methyl-5-(1-methylethyl)pyrimidine-2-carboxamide]
12 | ≤ 0.1 | ≤ 0.1 | CC1(C)CCc2nc(N)nc(N3CCOc4ccc(-c5cnc6sc(N)nc6c5)cc4C3)c2C1 [Compound 61, 4-[7-(2-amino[1,3]thiazolo[5,4-b]pyridin-6-yl)-2,3-dihydro-1,4-benzoxazepin-4(5H)-yl]-6,6-dimethyl-5,6,7,8-tetrahydroquinazolin-2-amine]
13 | ≤ 0.1 | ≤ 0.1 | CCc1c(C)nc(N)nc1N1CCOc2ccc(-c3cnc4sc(N)nc4c3)cc2C1 [Compound 6, 6-[4-(2-amino-5-ethyl-6-methylpyrimidin-4-yl)-2,3,4,5-tetrahydro-1,4-benzoxazepin-7-yl][1,3]thiazolo[5,4-b]pyridin-2-amine]
14 | ≤ 0.1 | ≤ 0.1 | C=Cc1cnc(N)nc1N1CCOc2ccc(-c3cnc4sc(N)nc4c3)cc2C1 [Compound 34, 6-[4-(2-amino-5-ethenylpyrimidin-4-yl)-2,3,4,5-tetrahydro-1,4-benzoxazepin-7-yl][1,3]thiazolo[5,4-b]pyridin-2-amine]
15 | ≤ 0.1 | ≤ 0.1 | CCCc1cnc(N)nc1N1CCOc2ccc(-c3cnc4sc(N)nc4c3)cc2C1 [Compound 33, 6-[4-(2-amino-5-propylpyrimidin-4-yl)-2,3,4,5-tetrahydro-1,4-benzoxazepin-7-yl][1,3]thiazolo[5,4-b]pyridin-2-amine]
16 | ≤ 0.1 | ≤ 0.1 | Cc1nc(N)nc(N2CCOc3c(F)cc(-c4cnc5sc(N)nc5c4)cc3C2)c1C(C)C [Compound 101, 6-{4-[2-amino-6-methyl-5-(1-methylethyl)pyrimidin-4-yl]-9-fluoro-2,3,4,5-tetrahydro-1,4-benzoxazepin-7-yl}[1,3]thiazolo[5,4-b]pyridin-2-amine]
17 | ≤ 0.1 | ≤ 0.1 | Cc1nc(N)nc(N2CCOc3ccc(-c4cnc5sc(N)nc5c4)cc3C2)c1C#N [Compound 72, 2-amino-4-[7-(2-amino[1,3]thiazolo[5,4-b]pyridin-6-yl)-2,3-dihydro-1,4-benzoxazepin-4(5H)-yl]-6-methylpyrimidine-5-carbonitrile]
18 | ≤ 0.1 | ≤ 0.1 | Cc1nc(N)nc(N2CCOc3c(Cl)cc(-c4cnc5sc(N)nc5c4)cc3C2)c1C(C)C [Compound 102, 6-{4-[2-amino-6-methyl-5-(1-methylethyl)pyrimidin-4-yl]-9-chloro-2,3,4,5-tetrahydro-1,4-benzoxazepin-7-yl}[1,3]thiazolo[5,4-b]pyridin-2-amine]
19 | 0.1 to 0.5 | ≤ 0.1 | Cc1nc(N)nc(N2CCOc3ccc(-c4cnc5sc(N)nc5c4)cc3C2)c1C [Compound 5, 6-[4-(2-amino-5,6-dimethylpyrimidin-4-yl)-2,3,4,5-tetrahydro-1,4-benzoxazepin-7-yl][1,3]thiazolo[5,4-b]pyridin-2-amine]
20 | ≤ 0.1 | ≤ 0.1 | Cc1nc(CO)nc(N2CCOc3ccc(-c4cnc5sc(N)nc5c4)cc3C2)c1C(C)C [Compound 3, {4-[7-(2-amino[1,3]thiazolo[5,4-b]pyridin-6-yl)-2,3-dihydro-1,4-benzoxazepin-4(5H)-yl]-6-methyl-5-(1-methylethyl)pyrimidin-2-yl}methanol]
